Test results: patent publication US8192962B2, “Processes for detecting toxic substances” (Daikin Industries, Ltd., priority 2001, dated 2012)

Tested on: Energy system protein genes
Test: DNA chip mRNA expression in yeast, energy system protein genes (Table 4)
Assay type: cell-based, Saccharomyces cerevisiae S288C
Procedure, shortened: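 Cells were grown at 25° C. in YPD, treated at logarithmic phase for 2 h with a chemical at a concentration inhibiting growth but not causing death, and compared with untreated cultures. Labeled cDNA was hybridized to a DNA chip carrying all yeast genes, and the expression ratio was taken from scanner fluorescence.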

## [Cl][Pb][Cl] [(4), PbCl2]
Yeast gene YJR048W
  The level of expressed mRNA in the presence of chemical substance/The level of expressed mRNA in the absence of chemical substance: 1.4
Yeast gene YJR121W, cells incubated two hours with the chemical substance
  The level of expressed mRNA in the presence of chemical substance/The level of expressed mRNA in the absence of chemical substance: 1.0
Yeast gene YJR155W
  The level of expressed mRNA in the presence of chemical substance/The level of expressed mRNA in the absence of chemical substance: 2.5
Yeast gene YKL016C, cells incubated two hours with the chemical substance
  The level of expressed mRNA in the presence of chemical substance/The level of expressed mRNA in the absence of chemical substance: 1.7
Yeast gene YKL060C, cells incubated two hours with the chemical substance
  The level of expressed mRNA in the presence of chemical substance/The level of expressed mRNA in the absence of chemical substance: 1.0
Yeast gene YKL141W, cells incubated two hours with the chemical substance
  The level of expressed mRNA in the presence of chemical substance/The level of expressed mRNA in the absence of chemical substance: 1.7
Yeast gene YKL148C, cells incubated two hours with the chemical substance
  The level of expressed mRNA in the presence of chemical substance/The level of expressed mRNA in the absence of chemical substance: 0.7
Yeast gene YKR009C, cells incubated two hours with the chemical substance
  The level of expressed mRNA in the presence of chemical substance/The level of expressed mRNA in the absence of chemical substance: 0.9
Yeast gene YKR058W, cells incubated two hours with the chemical substance, 25° C., YPD medium
  The level of expressed mRNA in the presence of chemical substance/The level of expressed mRNA in the absence of chemical substance: 1.9
Yeast gene YKR097W
  The level of expressed mRNA in the presence of chemical substance/The level of expressed mRNA in the absence of chemical substance: 3.3
Yeast gene YLL041C, cells incubated two hours with the chemical substance
  The level of expressed mRNA in the presence of chemical substance/The level of expressed mRNA in the absence of chemical substance: 1.0
Yeast gene YLR038C, cells incubated two hours with the chemical substance
  The level of expressed mRNA in the presence of chemical substance/The level of expressed mRNA in the absence of chemical substance: 2.1
Yeast gene YLR044C, cells incubated two hours with the chemical substance
  The level of expressed mRNA in the presence of chemical substance/The level of expressed mRNA in the absence of chemical substance: 0.9
Yeast gene YLR134W, cells incubated two hours with the chemical substance
  The level of expressed mRNA in the presence of chemical substance/The level of expressed mRNA in the absence of chemical substance: 0.8
Yeast gene YLR258W, cells incubated two hours with the chemical substance
  The level of expressed mRNA in the presence of chemical substance/The level of expressed mRNA in the absence of chemical substance: 3.5
Yeast gene YLR284C, cells incubated two hours with the chemical substance
  The level of expressed mRNA in the presence of chemical substance/The level of expressed mRNA in the absence of chemical substance: 1.9
Yeast gene YLR295C, cells incubated two hours with the chemical substance, 25° C., YPD medium
  The level of expressed mRNA in the presence of chemical substance/The level of expressed mRNA in the absence of chemical substance: 1.7
Yeast gene YLR304C, cells incubated two hours with the chemical substance
  The level of expressed mRNA in the presence of chemical substance/The level of expressed mRNA in the absence of chemical substance: 0.7
Yeast gene YLR345W
  The level of expressed mRNA in the presence of chemical substance/The level of expressed mRNA in the absence of chemical substance: 1.2
Yeast gene YLR354C, cells incubated two hours with the chemical substance
  The level of expressed mRNA in the presence of chemical substance/The level of expressed mRNA in the absence of chemical substance: 1.5
Yeast gene YLR377C, cells incubated two hours with the chemical substance
  The level of expressed mRNA in the presence of chemical substance/The level of expressed mRNA in the absence of chemical substance: 1.2
Yeast gene YLR395C, cells incubated two hours with the chemical substance
  The level of expressed mRNA in the presence of chemical substance/The level of expressed mRNA in the absence of chemical substance: 1.9
Yeast gene YML087C
  The level of expressed mRNA in the presence of chemical substance/The level of expressed mRNA in the absence of chemical substance: 2.5
Yeast gene YML120C, cells incubated two hours with the chemical substance
  The level of expressed mRNA in the presence of chemical substance/The level of expressed mRNA in the absence of chemical substance: 1.9
Yeast gene YML129C, cells incubated two hours with the chemical substance
  The level of expressed mRNA in the presence of chemical substance/The level of expressed mRNA in the absence of chemical substance: 1.2
Yeast gene YMR073C, cells incubated two hours with the chemical substance
  The level of expressed mRNA in the presence of chemical substance/The level of expressed mRNA in the absence of chemical substance: 1.5
Yeast gene YMR118C
  The level of expressed mRNA in the presence of chemical substance/The level of expressed mRNA in the absence of chemical substance: 1.6
Yeast gene YMR205C, cells incubated two hours with the chemical substance
  The level of expressed mRNA in the presence of chemical substance/The level of expressed mRNA in the absence of chemical substance: 0.8
Yeast gene YMR261C, cells incubated two hours with the chemical substance
  The level of expressed mRNA in the presence of chemical substance/The level of expressed mRNA in the absence of chemical substance: 0.8
Yeast gene YMR267W, cells incubated two hours with the chemical substance, 25° C., YPD medium
  The level of expressed mRNA in the presence of chemical substance/The level of expressed mRNA in the absence of chemical substance: 0.9
Yeast gene YMR323W, cells incubated two hours with the chemical substance
  The level of expressed mRNA in the presence of chemical substance/The level of expressed mRNA in the absence of chemical substance: 1.1
Yeast gene YNL071W
  The level of expressed mRNA in the presence of chemical substance/The level of expressed mRNA in the absence of chemical substance: 1.5
Yeast gene YNL202W, cells incubated two hours with the chemical substance
  The level of expressed mRNA in the presence of chemical substance/The level of expressed mRNA in the absence of chemical substance: 1.7
Yeast gene YNL241C
  The level of expressed mRNA in the presence of chemical substance/The level of expressed mRNA in the absence of chemical substance: 1.0
Yeast gene YNL331C
  The level of expressed mRNA in the presence of chemical substance/The level of expressed mRNA in the absence of chemical substance: 1.0
Yeast gene YOL086C, cells incubated two hours with the chemical substance
  The level of expressed mRNA in the presence of chemical substance/The level of expressed mRNA in the absence of chemical substance: 1.1
Yeast gene YOL165C
  The level of expressed mRNA in the presence of chemical substance/The level of expressed mRNA in the absence of chemical substance: 0.9
Yeast gene YOR142W, cells incubated two hours with the chemical substance
  The level of expressed mRNA in the presence of chemical substance/The level of expressed mRNA in the absence of chemical substance: 1.0
Yeast gene YOR178C, cells incubated two hours with the chemical substance
  The level of expressed mRNA in the presence of chemical substance/The level of expressed mRNA in the absence of chemical substance: 2.3
Yeast gene YOR388C, cells incubated two hours with the chemical substance
  The level of expressed mRNA in the presence of chemical substance/The level of expressed mRNA in the absence of chemical substance: 4.7
Yeast gene YPL031C, cells incubated two hours with the chemical substance
  The level of expressed mRNA in the presence of chemical substance/The level of expressed mRNA in the absence of chemical substance: 0.8
Yeast gene YPL061W, cells incubated two hours with the chemical substance
  The level of expressed mRNA in the presence of chemical substance/The level of expressed mRNA in the absence of chemical substance: 1.3
Yeast gene YPL088W
  The level of expressed mRNA in the presence of chemical substance/The level of expressed mRNA in the absence of chemical substance: 2.5
Yeast gene YPL171C
  The level of expressed mRNA in the presence of chemical substance/The level of expressed mRNA in the absence of chemical substance: 2.2
Yeast gene YPL240C
  The level of expressed mRNA in the presence of chemical substance/The level of expressed mRNA in the absence of chemical substance: 0.9
Yeast gene YPL262W, cells incubated two hours with the chemical substance
  The level of expressed mRNA in the presence of chemical substance/The level of expressed mRNA in the absence of chemical substance: 1.2
Yeast gene YPL275W, cells incubated two hours with the chemical substance
  The level of expressed mRNA in the presence of chemical substance/The level of expressed mRNA in the absence of chemical substance: 5.1
Yeast gene YPL276W, cells incubated two hours with the chemical substance
  The level of expressed mRNA in the presence of chemical substance/The level of expressed mRNA in the absence of chemical substance: 3.0
Yeast gene YPR048W, cells incubated two hours with the chemical substance
  The level of expressed mRNA in the presence of chemical substance/The level of expressed mRNA in the absence of chemical substance: 1.1
Yeast gene YPR184W, cells incubated two hours with the chemical substance
  The level of expressed mRNA in the presence of chemical substance/The level of expressed mRNA in the absence of chemical substance: 2.2
